The source of these data is patent publication US20250064951A1, “DENDRITIC POLYELECTROLYTE ZWITTERIONS, JANUS-TYPE CONJUGATE COMPRISING SAME AND USES THEREOF” (ArtProBio Co., Ltd., priority 2023, published 2025).

One experiment has as its system HeLa cells. Description: EGFP mRNA complex delivery and eGFP expression in HeLa cells by flow cytometry. Format: cell-based. Particulars: complex with EGFP mRNA. The procedure:
HeLa cells were subcultured in DMEM supplemented with 10% FBS (fetal bovine serum), dispensed into each well at 1-3×10^4 cells/well, and cultured at 37° C. for 24 hours. The cells were treated with the (+6)2(−6)2_conjugate 2_complex or the (+6)2(−6)2_conjugate 3_complex at a concentration of […], respectively, and incubated at 37° C. for 4 hours. Afterwards, the cells were washed with Dulbecco's phosphate-buffered saline (DPBS), trypsinized, and resuspended in DPBS supplemented with 10% cell dissociation buffer (GIBCO) and 1% FBS. Then, the expressed eGFP (enhanced green fluorescent protein) was analyzed using a flow cytometer (BD LSR II SORT flow cytometer, BD Bioscience, USA).
Background: Flow cytometry measures light scatter and fluorescence of single cells or particles in a stream.

Another experiment concerns BALB/c nude mice. Description: In vivo delivery of EGFP mRNA complex, eGFP imaging by IVIS. To be noted: subcutaneous injection, 0.1 mg/kg. How it is done:
The complex ((+6)2(−6)2_conjugate 2_complex) was subcutaneously injected into BALB/c nude mice at 0.1 mg/kg, and then the expressed eGFP (enhanced green fluorescenct protein) was imaged and quantified with IVIS (in vivo imaging system). As a control group, only EGFP mRNA was used instead of the complex.

Consider `CCCCCCCCCCCCCCCCCCC[C@H](CCCCNC(=O)CCCCCCCCCCCCCCC)C(=O)NCCCCC(NC(=O)[C@H](CCCCNC(=O)[C@H](CCCCNC(=O)[C@H](CCC(=O)O)NC(=O)[C@H](CCC(=O)O)NC(=O)[C@H](CCC(=O)O)NC(=O)[C@H](CCC(=O)O)NC(=O)[C@H](CCC(=O)O)NC(=O)[C@H](CCC(=O)O)NC(C)=O)NC(=O)[C@H](CCCNC(=N)N)NC(=O)[C@H](CCCNC(=N)N)NC(=O)[C@H](CCCNC(=N)N)NC(=O)[C@H](CCCNC(=N)N)NC(=O)[C@H](CCCNC(=N)N)NC(=O)[C@H](CCCNC(=N)N)NC(C)=O)NC(=O)[C@H](CCCCNC(=O)[C@H](CCC(=O)O)NC(=O)[C@H](CCC(=O)O)NC(=O)[C@H](CCC(=O)O)NC(=O)[C@H](CCC(=O)O)NC(=O)[C@H](CCC(=O)O)NC(=O)[C@H](CCC(=O)O)NC(C)=O)NC(=O)[C@H](CCCNC(=N)N)NC(=O)[C@H](CCCNC(=N)N)NC(=O)[C@H](CCCNC(=N)N)NC(=O)[C@H](CCCNC(=N)N)NC(=O)[C@H](CCCNC(=N)N)NC(=O)[C@H](CCCNC(=N)N)NC(C)=O)C(N)=O` (stereo partly drawn) [Example 7], for which the “delivery of EGFP mRNA into cells” value in the experiment with HeLa cells (16 M or 32 M, 4 hours) is “successfully delivered the mRNA into the nucleus and cytoplasm of the cells”. The “efficiency of eGFP protein expression from internalized EGFP mRNA” value with HeLa cells (flow cytometry) turned out to be 82.9%. Moreover, the “in vivo mRNA delivery and eGFP protein expression (IVIS)” value with BALB/c nude mice is reported as “successfully delivered the mRNA in vivo”.
